Consider 25 compounds from patent US9765070B2, “Substituted oxopyridine derivatives” (Bayer Pharma Aktiengesellschaft, priority 2013, dated 2017).

This assay deals with human plasma kallikrein (Homo sapiens (Human), UniProt P03952). As to the kind of experiment: Determination of the plasma kallikrein activity (fluorogenic substrate H-Pro-Phe-Arg-AMC). Particulars: plasma kallikrein from Kordia 0.6 nM, 15 min preincubation, 30 min at 22° C., fluorescence. Format: biochemical. As to the method: a.5) Determination of the Plasma Kallikrein Activity
To determine the plasma kallikrein inhibition of the substances according to the invention, a biochemical test system is used which utilizes the reaction of a peptidic plasma kallikrein substrate to determine the enzymatic activity of human plasma kallikrein. Here, plasma kallikrein cleaves from the peptic plasma kallikrein substrate the C-terminal aminomethylcoumarin (AMC), the fluorescence of which is measured. The determinations are carried out in microtitre plates.
In each case 1 μl of the diluted substance solutions is placed into the wells of white microtitre plates from Greiner (384 wells). 20 μl of assay buffer (50 mM Tris/HCl pH 7.4; 100 mM sodium chloride solution; 5 mM of calcium chloride solution; 0.1% of bovine serum albumin) and 20 μl of plasma kallikrein from Kordia (0.6 nM in assay buffer) are then added successively. After 15 min of incubation, the enzyme reaction is started by addition of 20 μl of the substrate H-Pro-Phe-Arg-AMC dissolved in assay buffer (10 μM in assay buffer) from Bachem, the mixture is incubated at room temperature (22° C.) for 30 min and fluorescence is then measured (excitation: 360 nm, emission: 460 nm). The measured emissions of the test batches with test substance are compared to those of control batches without test substance (only dimethyl sulphoxide instead of test substance in dimethyl sulphoxide), and IC50 values are calculated from the concentration/activity relationships.

Chain of human plasma kallikrein (P03952 391-638): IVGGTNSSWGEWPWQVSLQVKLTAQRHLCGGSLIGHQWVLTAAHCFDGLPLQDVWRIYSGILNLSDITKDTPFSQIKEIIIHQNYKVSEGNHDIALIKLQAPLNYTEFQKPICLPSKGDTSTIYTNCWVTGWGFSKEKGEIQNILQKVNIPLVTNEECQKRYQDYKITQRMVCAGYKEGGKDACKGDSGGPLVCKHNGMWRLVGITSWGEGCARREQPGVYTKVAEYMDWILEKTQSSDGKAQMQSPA
Chain of human plasma kallikrein (P03952 20-390 partner): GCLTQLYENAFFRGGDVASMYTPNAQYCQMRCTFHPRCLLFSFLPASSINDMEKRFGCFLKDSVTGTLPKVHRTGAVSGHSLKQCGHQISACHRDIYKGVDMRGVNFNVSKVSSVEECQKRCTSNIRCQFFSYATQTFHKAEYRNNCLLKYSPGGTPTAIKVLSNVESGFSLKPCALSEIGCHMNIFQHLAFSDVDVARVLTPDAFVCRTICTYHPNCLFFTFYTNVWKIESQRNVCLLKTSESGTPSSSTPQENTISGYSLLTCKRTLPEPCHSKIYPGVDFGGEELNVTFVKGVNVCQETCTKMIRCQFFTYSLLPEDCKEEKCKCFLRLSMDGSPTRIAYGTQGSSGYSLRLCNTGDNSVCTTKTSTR

`COc1cn(C(C[C@@H]2CCCCO2)C(=O)Nc2ccc3nc(C(=O)O)cn3c2)c(=O)cc1-c1cc(Cl)ccc1C#N` (mixture of isomers) [Example 9, 6-({2-[4-(5-Chloro-2-cyanophenyl)-5-methoxy-2-oxopyridin-1(2H)-yl]-3-[(2S)-tetrahydro-2H-pyran-2-yl]propanoyl}amino)imidazo[1,2-a]pyridine-2-carboxylic acid (mixture of enantiomerically pure diastereomers)] registered an IC50 of 0.0048 µM. That is a single-digit nanomolar value.
In the case of `CCC(C(=O)Nc1ccc2nc(C(=O)O)cn2c1)n1cc(OC)c(-c2cc(Cl)ccc2C#N)cc1=O` (racemic) [Example 2, 6-({2-[4-(5-Chloro-2-cyanophenyl)-5-methoxy-2-oxopyridin-1(2H)-yl]butanoyl}amino)imidazo[1,2-a]pyridine-2-carboxylic acid (racemate)] it was 0.016 µM; in that of `CCC(C(=O)Nc1ccn2cc(C(=O)O)nc2c1)n1cc(OC)c(-c2cc(Cl)ccc2C#N)cc1=O` (racemic) [Example 3, 7-({2-[4-(5-Chloro-2-cyanophenyl)-5-methoxy-2-oxopyridin-1(2H)-yl]butanoyl}amino)imidazo[1,2-a]pyridine-2-carboxylic acid (racemate)], 0.013 µM; in that of `CCC(C(=O)Nc1ccc2nccn2c1)n1cc(OC)c(-c2cc(Cl)ccc2C#N)cc1=O` (racemic) [Example 4, 2-[4-(5-Chloro-2-cyanophenyl)-5-methoxy-2-oxopyridin-1(2H)-yl]-N-(imidazo[1,2-a]pyridin-6-yl)butanamide (racemate)], 0.044 µM.
The result for `CCOC(=O)c1cnc2ccc(NC(=O)C(CCOC)n3cc(OC)c(-c4cc(Cl)ccc4C#N)cc3=O)cn12` (racemic) [Example 10, Ethyl 6-({2-[4-(5-chloro-2-cyanophenyl)-5-methoxy-2-oxopyridin-1(2H)-yl]-4-methoxybutanoyl}amino)imidazo[1,2-a]pyridine-3-carboxylate (racemate)] reads 0.007 µM; that for `CCOC(=O)c1cn2ccc(NC(=O)C(CCOC)n3cc(OC)c(-c4cc(Cl)ccc4C#N)cc3=O)cc2n1` (racemic) [Example 11, Ethyl 7-({2-[4-(5-chloro-2-cyanophenyl)-5-methoxy-2-oxopyridin-1(2H)-yl]-4-methoxybutanoyl}amino)imidazo[1,2-a]pyridine-2-carboxylate (racemate)], 0.005 µM.
In the case of `COCCC(C(=O)Nc1ccn2cc(C(N)=O)nc2c1)n1cc(OC)c(-c2cc(Cl)ccc2C#N)cc1=O` (racemic) [Example 12, 7-({2-[4-(5-Chloro-2-cyanophenyl)-5-methoxy-2-oxopyridin-1(2H)-yl]-4-methoxybutanoyl}amino)imidazo[1,2-a]pyridine-2-carboxamide (racemate)] it was 0.0049 µM; in that of `COCCC(C(=O)Nc1ccc2nccn2c1)n1cc(OC)c(-c2cc(Cl)ccc2C#N)cc1=O` (racemic) [Example 13, 2-[4-(5-Chloro-2-cyanophenyl)-5-methoxy-2-oxopyridin-1(2H)-yl]-N-(imidazo[1,2-a]pyridin-6-yl)-4-methoxybutanamide (racemate)], 0.013 µM; in that of `COCCC(C(=O)Nc1ccc2nccn2c1)n1cc(Cl)c(-c2cc(Cl)ccc2C#N)cc1=O` (racemic) [Example 14, 2-[5-Chloro-4-(5-chloro-2-cyanophenyl)-2-oxopyridin-1(2H)-yl]-N-(imidazo[1,2-a]pyridin-6-yl)-4-methoxybutanamide (racemate)], 0.065 µM.
`COc1cn(C(CC2CCC2)C(=O)Nc2ccc3nccn3c2)c(=O)cc1-c1cc(Cl)ccc1C#N` (racemic) [Example 15, 2-[4-(5-Chloro-2-cyanophenyl)-5-methoxy-2-oxopyridin-1(2H)-yl]-3-cyclobutyl-N-(imidazo[1,2-a]pyridin-6-yl)propanamide (racemate)] registered an IC50 of 0.031 µM.
For `CCC(C(=O)Nc1ccc2ncc(Cl)n2c1)n1cc(OC)c(-c2cc(Cl)ccc2C#N)cc1=O` (racemic) [Example 17, 2-[4-(5-Chloro-2-cyanophenyl)-5-methoxy-2-oxopyridin-1(2H)-yl]-N-(3-chloroimidazo[1,2-a]pyridin-6-yl)butanamide (racemate)], the IC50 is 0.024 µM.
In the case of `CCC(C(=O)Nc1ccc2nc(-c3ccc(F)cc3)cn2c1)n1cc(OC)c(-c2cc(Cl)ccc2C#N)cc1=O` (racemic) [Example 18, 2-[4-(5-Chloro-2-cyanophenyl)-5-methoxy-2-oxopyridin-1(2H)-yl]-N-[2-(4-fluorophenyl)-imidazo[1,2-a]pyridin-6-yl]butanamide (racemate)] it was 0.13 µM; in that of `COCCC(C(=O)Nc1ccc2nc(-c3ccc(F)cc3)cn2c1)n1cc(OC)c(-c2cc(Cl)ccc2C#N)cc1=O` (racemic) [Example 19, 2-[4-(5-Chloro-2-cyanophenyl)-5-methoxy-2-oxopyridin-1(2H)-yl]-N-[2-(4-fluorophenyl)-imidazo[1,2-a]pyridin-6-yl]-4-methoxybutanamide (racemate)], 0.025 µM.
`CCC(C(=O)Nc1ccc2nncn2c1)n1cc(OC)c(-c2cc(Cl)ccc2C#N)cc1=O` (racemic) [Example 20, 2-[4-(5-Chloro-2-cyanophenyl)-5-methoxy-2-oxopyridin-1(2H)-yl]-N-([1,2,4]triazolo[4,3-a]pyridin-6-yl)butanamide (racemate)] had a half-maximal inhibitory concentration (IC50) of 0.023 µM.
In the case of `COCCC(C(=O)Nc1ccc2nnc(C)n2c1)n1cc(OC)c(-c2cc(Cl)ccc2C#N)cc1=O` (racemic) [Example 22, 2-[4-(5-Chloro-2-cyanophenyl)-5-methoxy-2-oxopyridin-1(2H)-yl]-4-methoxy-N-(3-methyl[1,2,4]triazolo[4,3-a]pyridin-6-yl)butanamide (racemate)] it was 0.0083 µM.
The result for `CCc1nnc2ccc(NC(=O)C(CCOC)n3cc(OC)c(-c4cc(Cl)ccc4C#N)cc3=O)cn12` (racemic) [Example 23, 2-[4-(5-Chloro-2-cyanophenyl)-5-methoxy-2-oxopyridin-1(2H)-yl]-4-methoxy-N-(3-ethyl[1,2,4]triazolo[4,3-a]pyridin-6-yl)butanamide (racemate)] reads 0.013 µM.
The result for `CCCCc1nnc2ccc(NC(=O)C(CCOC)n3cc(OC)c(-c4cc(Cl)ccc4C#N)cc3=O)cn12` (racemic) [Example 24, N-(3-Butyl[1,2,4]triazolo[4,3-a]pyridin-6-yl)-2-[4-(5-chloro-2-cyanophenyl)-5-methoxy-2-oxopyridin-1(2H)-yl]-4-methoxybutanamide (racemate)] reads 0.016 µM; that for `COCCC(C(=O)Nc1ccc2nnc(CN(C)C)n2c1)n1cc(OC)c(-c2cc(Cl)ccc2C#N)cc1=O` (racemic) [Example 25, 2-[4-(5-Chloro-2-cyanophenyl)-5-methoxy-2-oxopyridin-1(2H)-yl]-N-{3-[(dimethylamino)-methyl][1,2,4]triazolo[4,3-a]pyridin-6-yl}-4-methoxybutanamide (racemate)], 0.023 µM; that for `COCCC(C(=O)Nc1ccc2cncn2c1)n1cc(Cl)c(-c2cc(Cl)ccc2C#N)cc1=O` (racemic) [Example 27, 2-[5-Chloro-4-(5-chloro-2-cyanophenyl)-2-oxopyridin-1(2H)-yl]-N-(imidazo[1,5-a]pyridin-6-yl)-4-methoxybutanamide (racemate)], 0.05 µM.
For the compound `COc1cn(C(Cc2ccccn2)C(=O)Nc2ccc3nccn3c2)c(=O)cc1-c1cc(Cl)ccc1C#N` (racemic) [Example 28, 2-[4-(5-Chloro-2-cyanophenyl)-5-methoxy-2-oxopyridin-1(2H)-yl]-N-(imidazo[1,2-a]pyridin-6-yl)-3-(pyridin-2-yl)propanamide (racemate)], the IC50 came to 0.0088 µM. Against the preceding compound, the IC50 is about 5.7-fold lower.
In the case of `COc1cn(C(Cc2cnco2)C(=O)Nc2ccc3nccn3c2)c(=O)cc1-c1cc(Cl)ccc1C#N` (racemic) [Example 29, 2-[4-(5-Chloro-2-cyanophenyl)-5-methoxy-2-oxopyridin-1(2H)-yl]-N-(imidazo[1,2-a]pyridin-6-yl)-3-(1,3-oxazol-5-yl)propanamide (racemate)] it was 0.011 µM; in that of `CCC(C(=O)Nc1ccn2nccc2c1)n1cc(OC)c(-c2cc(Cl)ccc2C#N)cc1=O` (racemic) [Example 34, 2-[4-(5-Chloro-2-cyanophenyl)-5-methoxy-2-oxopyridin-1(2H)-yl]-N-(pyrazolo[1,5-a]pyridin-5-yl)butanamide (racemate)], 0.017 µM.
The result for `COCCC(C(=O)Nc1ccn2nccc2c1)n1cc(OC)c(-c2cc(Cl)ccc2C#N)cc1=O` (racemic) [Example 35, 2-[4-(5-Chloro-2-cyanophenyl)-5-methoxy-2-oxopyridin-1(2H)-yl]-4-methoxy-N-(pyrazolo[1,5-a]pyridin-5-yl)butanamide (racemate)] reads 0.0043 µM.
The result for `CCC(C(=O)Nc1ccn2ncc(Cl)c2c1)n1cc(OC)c(-c2cc(Cl)ccc2C#N)cc1=O` (racemic) [Example 40, 2-[4-(5-Chloro-2-cyanophenyl)-5-methoxy-2-oxopyridin-1(2H)-yl]-N-(3-chloropyrazolo[1,5-a]pyridin-5-yl)butanamide (racemate)] reads 0.051 µM; that for `COCCC(C(=O)Nc1ccn2ncc(Cl)c2c1)n1cc(OC)c(-c2cc(Cl)ccc2C#N)cc1=O` (racemic) [Example 41, 2-[4-(5-Chloro-2-cyanophenyl)-5-methoxy-2-oxopyridin-1(2H)-yl]-N-(3-chloropyrazolo[1,5-a]pyridin-5-yl)-4-methoxybutanamide (racemate)], 0.011 µM.

In general, IC50 refers to the midpoint of a concentration-inhibition curve. Read a low IC50 as greater potency in that assay.
